Columns and labels:
Format in all cases: cell-based, human
WI-38 lung fibroblasts = assay: Cell viability test (MTT-assay) in WI-38 cells; conditions: 0.3, 1, 3 or 10 μM for 2 hours
Procedure: WI-38 cells, a normal human embryonic lung fibroblast cell line, were obtained from American Type Culture Collection (Manassas, VA). Cells were grown in MEM nutrient mixture, containing 10% FCS, 2 mM L-glutamine, 0.1 mM NEAA, 1 mM sodium pyruvate, 50 U/ml penicillin G, and 100 µg/ml streptomycin, in a humidified 37° C. incubator with 5% CO2 Cells were used between passages 18 and 30 for all experiments. After reaching confluence, cells were seeded onto 6-cm dishes for immunoblotting. WI-38 lung fibroblasts were incubated with different concentrations of MPTOL056 (0.3, 1, 3 or 10 μM) for 2 hours before MTT-assay.

[1] = test system: TGF-β-induced fibronectin expression in WI-38 cells; assay: TGF-β-induced fibronectin expression in WI-38 cells (Western blot, immunofluorescence); conditions: WI-38 lung fibroblasts, 0.3, 1, 3 or 10 μM for 30 min before and during incubation with TGF-β (10 ng/mL)
Procedure: (§1) FIGS. 6 (A), (B) and (C) show the effect of L056 on TGF-β-induced fibronectin expression in WI-38 cells. WI-38 lung fibroblasts were incubated with different concentrations of L056 (0.3, 1, 3 or 10 μM) for 30 min before and during incubation for 2 h with TGF-β (10 ng/mL). […] (A), Western blot plot; (B), Quantitative assay of Western blot; (C), Immunofluorescence plot. WI-38 cells, a normal human embryonic lung fibroblast cell line, were obtained from American Type Culture Collection (Manassas, VA). Cells were grown in MEM nutrient mixture, containing 10% FCS, 2 mM L-glutamine, 0.1 mM NEAA, 1 mM sodium pyruvate, 50 U/ml penicillin G, and 100 µg/ml streptomycin, in a humidified 37° C. incubator with 5% CO2 Cells were used between passages 18 and 30 for all experiments. After reaching confluence, cells were seeded onto 6-cm dishes for immunoblotting. Western blot analyses were performed as described previously (Chen B C, Chang Y S, Kang J C, Hsu M J, Sheu J R, Chen T L, et al. Peptidoglycan induces nuclear factor-kappaB activation and cyclooxygenase-2 expression via Ras, Raf-1, and ERK in RAW 264.7 macrophages. J Biol Chem 2004; 279:20889-97). […] The immunoreactivity was detected using enhanced chemiluminescence (ECL) following the manufacturer's instructions. Quantitative data were obtained using a computing densitometer with scientific imaging systems (Kodak, Rochester, NY). […]

[2] = test system: TGF-β-induced collagen expression in WI-38 cells; assay: TGF-β-induced collagen expression in WI-38 cells (Western blot, immunofluorescence); conditions: WI-38 lung fibroblasts, 0.3, 1, 3 or 10 μM, TGF-β (10 ng/mL)
Procedure: as §1, with “FIGS. 4” for “FIGS. 6”, “TGF-β-induced collagen” for “TGF-β-induced fibronectin”

Which cell viability (WI-38 lung fibroblasts) does the source give for `O=C(Nc1ccncc1)c1ccc(CNC2=C(Cl)C(=O)c3ccccc3C2=O)cc1` [Example L056, 4-(((3-chloro-1,4-dioxo-1,4-dihydronaphthalen-2-yl)amino)methyl)-N-(pyridin-4-yl)benzamide] here?
Its cell viability is “did not affect cell viability”.

And the TGF-β-induced fibronectin expression [1]?
Its TGF-β-induced fibronectin expression is “significantly inhibited”.

What about the TGF-β-induced collagen production/expression [2] of the same compound?
Its TGF-β-induced collagen production/expression is “significantly inhibited”.

And the TGF-β-induced collagen production/expression ([2]; listed as MPTOL056)?
The TGF-β-induced collagen production/expression was “inhibited”.

Source: US12453708B2, “Aminonaphthoquinone compounds for treatment and/or prevention of fibrosis diseases” (CALGENT BIOTECHNOLOGY CO., LTD., priority 2015, dated 2025)
